Results as given in patent publication US20250282794A1 (CURADEV PHARMA LTD, priority 2022, published 2025).

Target: recombinant full length HPK-1 enzyme (Homo sapiens (Human), UniProt Q92918)
Test: HPK-1 biochemical enzyme assay (ADP-Glo kinase inhibition)
Conditions: recombinant full length HPK-1 6.8 nM, 10 μM ATP, 12.5 μM MBP, 30 mins at 25° C.
Experimental: HPK-1 biochemical enzyme assay
Compound inhibitory potency was measured in an HPK-1 kinase inhibition assay. Briefly, recombinant full length HPK-1 enzyme (6.8 nM) was incubated with 10 μM ATP and 12.5 μM swine myelin basic protein (MBP) for 30 mins. at 25° C. in the presence of various concentrations of test compound or vehicle in 40 mM Tris.Cl pH7.4 buffer containing 20 mM MgCl2, 50 μM DTT and 0.1 mg/mL BSA. Reactions were quenched and reaction mixtures were then analyzed by an ADP-Glo kit which measures the formed ADP. The percent inhibition was calculated from the substrate conversion considering no enzyme control reactions for 100% inhibition and vehicle only reactions for 0% inhibition. The compounds were dissolved in DMSO and evaluated at 10 concentrations to determine an IC50 value.
In the below table A denotes an HPK-1 IC50≤10 nM, B denotes an HPK-1 IC50>10 nM but≤100 nM and C denotes an HPK-1 IC50>100 nM but≤1000 nM.

recombinant full length HPK-1 enzyme, sequence (Q92918 whole entry, species assumed): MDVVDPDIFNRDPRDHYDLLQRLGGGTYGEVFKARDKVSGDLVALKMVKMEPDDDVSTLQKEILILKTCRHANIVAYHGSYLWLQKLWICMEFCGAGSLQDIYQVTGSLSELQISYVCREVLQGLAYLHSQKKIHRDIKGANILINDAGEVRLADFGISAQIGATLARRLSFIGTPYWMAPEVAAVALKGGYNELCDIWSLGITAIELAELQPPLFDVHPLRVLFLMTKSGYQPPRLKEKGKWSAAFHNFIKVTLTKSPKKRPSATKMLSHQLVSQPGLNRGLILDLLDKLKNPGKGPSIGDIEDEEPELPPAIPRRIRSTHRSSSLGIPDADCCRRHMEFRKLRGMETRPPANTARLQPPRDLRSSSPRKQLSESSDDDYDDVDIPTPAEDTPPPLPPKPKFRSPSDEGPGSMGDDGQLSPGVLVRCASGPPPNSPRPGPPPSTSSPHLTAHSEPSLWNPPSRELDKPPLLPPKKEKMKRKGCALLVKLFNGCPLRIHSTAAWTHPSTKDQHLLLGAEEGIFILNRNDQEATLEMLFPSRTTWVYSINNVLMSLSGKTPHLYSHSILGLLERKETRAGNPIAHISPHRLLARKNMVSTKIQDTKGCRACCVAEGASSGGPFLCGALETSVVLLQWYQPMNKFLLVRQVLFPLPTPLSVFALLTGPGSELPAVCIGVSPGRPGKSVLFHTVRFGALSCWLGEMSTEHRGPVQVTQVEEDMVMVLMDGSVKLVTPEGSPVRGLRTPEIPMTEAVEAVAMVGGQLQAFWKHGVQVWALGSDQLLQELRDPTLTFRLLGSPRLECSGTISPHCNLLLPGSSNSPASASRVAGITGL

SMILES | IC50
Cc1c(Nc2cc[nH]c(=O)c2C(=O)Nc2ccc(-c3cccnc3)cc2)cnc2c1NCCO2 [Example 151, 4-((8-methyl-2,3-dihydro-1H-pyrido[2,3-b][1,4]oxazin-7-yl)amino)-2-oxo-N-(4-(pyridin-3-yl)phenyl)-1,2-dihydropyridine-3-carboxamide] | 10 to 100 nM
Cc1c(Nc2cc[nH]c(=O)c2C(=O)Nc2ccc(-c3ccncc3)cc2)cnc2c1NCCO2 [Example 152, 4-((8-methyl-2,3-dihydro-1H-pyrido[2,3-b][1,4]oxazin-7-yl)amino)-2-oxo-N-(4-(pyridin-4-yl)phenyl)-1,2-dihydropyridine-3-carboxamide] | 10 to 100 nM
Cc1c(Nc2cc[nH]c(=O)c2C(=O)Nc2ccc(N3CCCC(N)C3)cc2)cnc2c1NCCO2 (stereo not shown) [Example 153, N-(4-(3-aminopiperidin-1-yl)phenyl)-4-((8-methyl-2,3-dihydro-1H-pyrido[2,3-b][1,4]oxazin-7-yl)amino)-2-oxo-1,2-dihydropyridine-3-carboxamide] | ≤ 10 nM
Cc1c(Nc2cc[nH]c(=O)c2C(=O)Nc2ccc(N3CCC(N)CC3)cc2)cnc2c1NCCO2 [Example 154, N-(4-(4-aminopiperidin-1-yl)phenyl)-4-((8-methyl-2,3-dihydro-1H-pyrido[2,3-b][1,4]oxazin-7-yl)amino)-2-oxo-1,2-dihydropyridine-3-carboxamide] | ≤ 10 nM
Cc1c(Nc2cc[nH]c(=O)c2C(=O)Nc2ccc(N3CCN(CCO)CC3)cc2)cnc2c1NCC(C)O2 (stereo not shown) [Example 156, 4-((3,8-dimethyl-2,3-dihydro-1H-pyrido[2,3-b][1,4]oxazin-7-yl)amino)-N-(4-(4-(2-hydroxyethyl)piperazin-1-yl)phenyl)-2-oxo-1,2-dihydropyridine-3-carboxamide] | 10 to 100 nM
Cc1c(Nc2cc[nH]c(=O)c2C(=O)Nc2ccc(N3CCC(F)(F)CC3)cc2)cnc2c1NCCO2 [Example 161, N-(4-(4,4-difluoropiperidin-1-yl)phenyl)-4-((8-methyl-2,3-dihydro-1H-pyrido[2,3-b][1,4]oxazin-7-yl)amino)-2-oxo-1,2-dihydropyridine-3-carboxamide] | 10 to 100 nM
Cc1c(Nc2cc[nH]c(=O)c2C(=O)Nc2ccc(N3CC4CCC(C3)N4C)cc2)cnc2c1NCCO2 [Example 162, 4-((8-methyl-2,3-dihydro-1H-pyrido[2,3-b][1,4]oxazin-7-yl)amino)-N-(4-(8-methyl-3,8-diazabicyclo[3.2.1]octan-3-yl)phenyl)-2-oxo-1,2-dihydropyridine-3-carboxamide] | ≤ 10 nM
Cc1c(Nc2cc[nH]c(=O)c2C(=O)Nc2ccc3c(c2)CN(C)CC3)cnc2c1NCCO2 [Example 163, N-(2-Methyl-1,2,3,4-tetrahydroisoquinolin-7-yl)-4-((8-methyl-2,3-dihydro-1H-pyrido[2,3-b][1,4]oxazin-7-yl)amino)-2-oxo-1,2-dihydropyridine-3-carboxamide] | 10 to 100 nM
Cc1c(Nc2cc[nH]c(=O)c2C(=O)Nc2ccc(N3CCN(C)CC3)cc2)cnc2c1NCC(C)O2 (stereo not shown) [Example 164, 4-((3,8-dimethyl-2,3-dihydro-1H-pyrido[2,3-b][1,4]oxazin-7-yl)amino)-N-(4-(4-methylpiperazin-1-yl)phenyl)-2-oxo-1,2-dihydropyridine-3-carboxamide] | 10 to 100 nM
Cc1c(Nc2cc[nH]c(=O)c2C(=O)Nc2ccc(N3CCN(C)CC3)cc2)cnc2c1NCC(C)O2 (stereo not shown) [Example 165, 4-((3,8-dimethyl-2,3-dihydro-1H-pyrido[2,3-b][1,4]oxazin-7-yl)amino)-N-(4-(4-methylpiperazin-1-yl)phenyl)-2-oxo-1,2-dihydropyridine-3-carboxamide] | ≤ 10 nM
Cc1c(Nc2cc[nH]c(=O)c2C(=O)Nc2ccc(N3CCN(C4CC4)CC3)cc2)cnc2c1NCCO2 [Example 167, N-(4-(4-Cyclopropylpiperazin-1-yl)phenyl)-4-((8-methyl-2,3-dihydro-1H-pyrido[2,3-b][1,4]oxazin-7-yl)amino)-2-oxo-1,2-dihydropyridine-3-carboxamide] | ≤ 10 nM
Cc1c(Nc2cc[nH]c(=O)c2C(=O)Nc2ccc3c(c2)OCC2CN(C)CCN32)cnc2c1NCCO2 (stereo not shown) [Example 168, N-(3-Methyl-1,2,3,4,4a,5-hexahydrobenzo[b]pyrazino[1,2-d][1,4]oxazin-8-yl)-4-((8-methyl-2,3-dihydro-1H-pyrido[2,3-b][1,4]oxazin-7-yl)amino)-2-oxo-1,2-dihydropyridine-3-carboxamide] | ≤ 10 nM
Cc1c(Nc2cc[nH]c(=O)c2C(=O)Nc2ccc(N3CCN(C(C)C)CC3)cc2)cnc2c1NCC(C)O2 (stereo not shown) [Example 169, 4-((3,8-dimethyl-2,3-dihydro-1H-pyrido[2,3-b][1,4]oxazin-7-yl)amino)-N-(4-(4-isopropylpiperazin-1-yl)phenyl)-2-oxo-1,2-dihydropyridine-3-carboxamide] | ≤ 10 nM
Cc1c(Nc2cc[nH]c(=O)c2C(=O)Nc2ccc(N3CCN(CC(C)O)CC3)cc2)cnc2c1NCCO2 (stereo not shown) [Example 170, N-(4-(4-(2-hydroxypropyl)piperazin-1-yl)phenyl)-4-((8-methyl-2,3-dihydro-1H-pyrido[2,3-b][1,4]oxazin-7-yl)amino)-2-oxo-1,2-dihydropyridine-3-carboxamide] | ≤ 10 nM
COCCN1CCN(c2ccc(NC(=O)c3c(Nc4cnc5c(c4C)NCC(C)O5)cc[nH]c3=O)cc2)CC1 (stereo not shown) [Example 171, 4-((3,8-dimethyl-2,3-dihydro-1H-pyrido[2,3-b][1,4]oxazin-7-yl)amino)-N-(4-(4-(2-methoxyethyl)piperazin-1-yl)phenyl)-2-oxo-1,2-dihydropyridine-3-carboxamide] | ≤ 10 nM
Cc1c(Nc2cc[nH]c(=O)c2C(=O)Nc2ccc(N3CCN(C)CC3)cc2)cnc2c1NCC(C)(C)O2 [Example 172, N-(4-(4-methylpiperazin-1-yl)phenyl)-2-oxo-4-((3,3,8-trimethyl-2,3-dihydro-1H-pyrido[2,3-b][1,4]oxazin-7-yl)amino)-1,2-dihydropyridine-3-carboxamide] | 10 to 100 nM
COCCN1CCN(c2ccc(NC(=O)c3c(Nc4cnc5c(c4C)NCC(C)(C)O5)cc[nH]c3=O)cc2)CC1 [Example 173, N-(4-(4-(2-methoxyethyl)piperazin-1-yl)phenyl)-2-oxo-4-((3,3,8-trimethyl-2,3-dihydro-1H-pyrido[2,3-b][1,4]oxazin-7-yl)amino)-1,2-dihydropyridine-3-carboxamide] | 10 to 100 nM
Cc1c(Nc2cc[nH]c(=O)c2C(=O)Nc2ccc(N3CCN(Cc4ccn[nH]4)CC3)cc2)cnc2c1NCCO2 [Example 174, N-(4-(4-((1H-pyrazol-5-yl)methyl)piperazin-1-yl)phenyl)-4-((8-methyl-2,3-dihydro-1H-pyrido[2,3-b][1,4]oxazin-7-yl)amino)-2-oxo-1,2-dihydropyridine-3-carboxamide] | ≤ 10 nM
Cc1c(Nc2cc[nH]c(=O)c2C(=O)Nc2ccc(N3CCN(CCCO)CC3)cc2)cnc2c1NCCO2 [Example 175, N-(4-(4-(3-hydroxypropyl)piperazin-1-yl)phenyl)-4-((8-methyl-2,3-dihydro-1H-pyrido[2,3-b][1,4]oxazin-7-yl)amino)-2-oxo-1,2-dihydropyridine-3-carboxamide] | ≤ 10 nM
Cc1c(Nc2cc[nH]c(=O)c2C(=O)Nc2ccc(N3CCN(CC4CCC(=O)N4)CC3)cc2)cnc2c1NCCO2 (stereo not shown) [Example 176, 4-((8-methyl-2,3-dihydro-1H-pyrido[2,3-b][1,4]oxazin-7-yl)amino)-2-oxo-N-(4-(4-((5-oxopyrrolidin-2-yl)methyl)piperazin-1-yl)phenyl)-1,2-dihydropyridine-3-carboxamide] | ≤ 10 nM
Cc1c(Nc2cc[nH]c(=O)c2C(=O)Nc2ccc(N3CCN(C(C)C)CC3)cc2)cnc2c1NCC(C)(C)O2 [Example 177, N-(4-(4-isopropylpiperazin-1-yl)phenyl)-2-oxo-4-((3,3,8-trimethyl-2,3-dihydro-1H-pyrido[2,3-b][1,4]oxazin-7-yl)amino)-1,2-dihydropyridine-3-carboxamide] | ≤ 10 nM
Cc1c(Nc2cc[nH]c(=O)c2C(=O)Nc2ccc(N3CCN(CCC#N)CC3)cc2)cnc2c1NCCO2 [Example 178, N-(4-(4-(2-cyanoethyl)piperazin-1-yl)phenyl)-4-((8-methyl-2,3-dihydro-1H-pyrido[2,3-b][1,4]oxazin-7-yl)amino)-2-oxo-1,2-dihydropyridine-3-carboxamide] | ≤ 10 nM
Cc1c(Nc2cc[nH]c(=O)c2C(=O)Nc2ccc(N3CCN(C4CCC4)CC3)cc2)cnc2c1NCCO2 [Example 179, N-(4-(4-cyclobutylpiperazin-1-yl)phenyl)-4-((8-methyl-2,3-dihydro-1H-pyrido[2,3-b][1,4]oxazin-7-yl)amino)-2-oxo-1,2-dihydropyridine-3-carboxamide] | ≤ 10 nM
Cc1c(Nc2cc[nH]c(=O)c2C(=O)Nc2ccc3c(c2)CN(C)C(=O)C3)cnc2c1NCCO2 [Example 180, 4-((8-methyl-2,3-dihydro-1H-pyrido[2,3-b][1,4]oxazin-7-yl)amino)-N-(2-methyl-3-oxo-1,2,3,4-tetrahydroisoquinolin-7-yl)-2-oxo-1,2-dihydropyridine-3-carboxamide] | 10 to 100 nM
Cc1c(Nc2cc[nH]c(=O)c2C(=O)Nc2ccc(N3CC4CCC(C3)N4C)cc2)cnc2c1NCC(C)O2 (stereo not shown) [Example 181, 4-((3,8-dimethyl-2,3-dihydro-1H-pyrido[2,3-b][1,4]oxazin-7-yl)amino)-N-(4-(8-methyl-3,8-diazabicyclo[3.2.1]octan-3-yl)phenyl)-2-oxo-1,2-dihydropyridine-3-carboxamide] | 10 to 100 nM
